Data published in US20250127168A1, “METHOD FOR PATHOGENS, MICROORGANISMS, AND PARASITES INACTIVATION” (New York Blood Center, Inc., priority 2018, published 2025).

How the values were obtained:
E. coli = assay: Bacterial inactivation in Ringer's solution, colony agar plate count; type: cell-based; details: 100 μM, RT, 1 h treatment
Experimental: (§1) A panel of G+F and G-bacteria were inactivated in their respective growth medium using compound VI, compound X, and compound XIV. All cells were grown in corresponding media to middle log phase, collected by centrifugation, re-suspended in Ringer's solution (RS), and treated at RT with 100 μM of compound VI, compound X, and compound XIV, which were added to the suspension as 100× concentrate in RS. Controls received RS only. At the end of the incubation, unreacted compound VI, compound X, and compound XIV were neutralized with 10 mM sodium thiophosphate during incubation at RT for 30 min. The viable cells were enumerated using serial dilutions by standard colony agar plate count. Table 1 summarizes the typical results of 1 h treatment of E. coli, P. fluorescens, Y. enterocolitica, B. cereus, S. aureus, and S. epidermidis with compound VI, compound X, and compound XIV.

S. epidermidis = assay: as above; type: cell-based; details: 100 μM, RT, 1 h treatment
Experimental: as §1

[1] = Neutralization of compound VI by sodium thiosulfate (LCMS); type: physicochemical; details: for first-order rate constant of reaction with Na2S2O3: Compound VI 100 μM, 1 mM Na2S2O3 in PBS
Experimental: The rate of reaction of Compound VI, 100 μM with 1 mM Na2S2O3 in PBS was determined by LCMS analysis of the reaction mixture (FIG. 19). […] LCMS analysis of the reaction product confirmed that it was the bisthiosulfate ester (compound XXIII formed by reacting of compound VI with two molecules of Na2S2O3.

[2] = tested on: Bovine viral diarrhea virus (BVDV); assay: Viral inactivation in RS, endpoint dilution assay; type: cell-based; details: 100 μM, RT
Experimental: The porcine parvovirus (PPV) was inactivated by using compound VI and compound X. Treatments were conducted in RS (pH 6.9) at RT with 100 μM using compound VI and compound X and 10% virus spike. Residual compounds were quenched by incubation with 10 mM Na2S2O3 for 2 hours at RT. Virus titers, expressed as Log10TCID50/mL, were determined using the standard endpoint dilution assay with permissive to PPV porcine testis cells. After the incubation of indicator cells for 6 days, infected wells were counted under microscope by visual inspection. To confirm the results, secondary infection using conditioned media from the first plate wells as samples was conducted.
Bovine viral diarrhea virus (BVDV) was inactivated by using compound VI and compound X. The protocol used for […] except the indicator cells, which were bovine turbinate cells.

[3] = tested on: whole blood or red blood cells concentrate; assay: Quality of treated whole blood and red blood cells concentrate (complete blood count and biochemistry); details: 500 μM for 6 hours at RT, neutralized with sodium thiosulfate; storage at 4-6° C., weekly testing
Experimental: Ten mL samples of whole blood or red blood cells concentrate (RBCC, 25 mL) were treated with 500 μM compound VI for 6 hours at RT. The residual compound VI was neutralized by the same volume of 10 mM sodium thiosulfate for 2 hours at RT. For controls, identical samples of whole blood or RBCC were treated with saline and sodium thiosulfate without compound VI or with saline only without compound VI and/or thiosulfate. Aliquots of whole blood and RBCC from each sample were subjected to complete blood count and biochemistry analysis using IDEXX Procyte Dx Hematology Analyzer and IDEXX Catalyst Dx Chemistry Analyzer according to manufacturer recommendations. The samples were analyzed immediately after the treatment and re-analyzed after one week for whole blood and every week for 5 weeks of storage at 4-6° C. for RBCC. The following parameters were measured: RBC number, hemoglobin, hematocrit, mean corpuscular volume, mean corpuscular hemoglobin, red cell distribution, reticulocyte count, platelets, mean platelet volume, white blood cells, neutrophils, lymphocytes, monocytes, eosinophils, basophils, chloride, potassium, sodium, glucose, and lactate concentrations.

[4] = Storage stability of formulated compounds; type: physicochemical
Description: The solutions of the free bases of the compound of Structure I are alkaline, and can absorb atmospheric carbon dioxide, which can compromise the stability of the solutions and accelerate their hydrolysis or other degradation. The free bases of the compounds of Structure I may be stabilized by addition of small amounts of basic compounds, for example of sodium hydroxide.
The compounds of Structure I can be converted to solid solutions by quick solidification by cooling of their solution in compounds which are solid at room temperature. For example, if compound VI is added, in amount of up to 3% to melted polyethylene glycol, and the resulted solution is cooled quickly, preferably in thin film, a solid solution of compound VI is formed. […] The stability of the solid solutions can be further enhanced by addition of traces of strong bases, as for example, of sodium hydroxide. The preferred solids for the preparing of solid solution of compounds of Structure I have melting points above 40° C. and below 120° C., are well soluble in aqueous media, are neutral in chemical character, and have no adverse effect on the sample to be treated by the process, or on its intended use.

[5] = Neutralization of compound X by ethyl 2-mercaptoacetate (LCMS); type: physicochemical; details: PBS, RT; for Peak Areas (LCMS): 100 μM X + 10 mM ethyl 2-mercaptoacetate
Experimental: 100 μM solution of compound X in phosphate buffered saline was incubated at room temperature with 10 mM of ethyl-2-mercaptoacetate, and the change of the concentration of compound X, as well as the formation of the intermediate compound of neutralization (XXI) and the final compound of neutralization XXII was determined by LCMS analysis of the mixture. The reaction scheme of neutralization is presented below. The peak areas of compound X, intermediate neutralization product, Q1 (compound XXI) and final neutralization product, Q2 (compound XXII) are presented in the Table 8 below, and in FIG. 18.

[6] = Neutralization of compound X with thiophenol (LCMS); details: for ratio of the peak areas of compounds X, XXVI and XXVII: 100 μM X, 10 mM thiophenol, PBS
Description: In the right panel are shown the mass spectra of the corresponding peaks.

[7] = Neutralization of compound X with glutathione; details: in presence of glutathione, same conditions

## CN(CCCCN(C)CCCN1CC1)CCCN1CC1 [Compound VI, N^1,N^4-bis(3-(aziridin-1-yl)propyl)-N^1,N^4-dimethylbutane-1,4-diamine]
E. coli
  Titer: 4.60 Log10CFU/mL
S. epidermidis
  Titer: 8.11 Log10CFU/mL
[1]; 10 mM Na2S2O3, 25° C., after 2 h, extrapolated
  residual compound VI concentration: 5.5e-07 pM
[1]; 6° C.
  first-order rate constant of reaction with Na2S2O3: 0.00614 min⁻¹
[1]; 25° C.
  first-order rate constant of reaction with Na2S2O3: 0.0379 min⁻¹
[1]; in 10 mM Na2S2O3 and 25° C., extrapolated from rate
  half-live of compound VI: 1.83 min
[2]; incubation 1 h
  BVDV titer: 3.27 Log10TCID50/mL
[2]; incubation 3 h
  BVDV titer: 1.30 Log10TCID50/mL
[2]; incubation 6 h
  BVDV titer: below the limit of detection and BLD
[3]
  cellular or biochemical characteristics of treated blood versus controls: No differences in cellular or biochemical characteristics
[4]
  storage stability: significantly higher storage stability

## CN(CCCCN(C)CCCN1CC1)CCCN(C)CCCN1CC1 [Compound X]
E. coli
  Titer: 3.98 Log10CFU/mL
S. epidermidis
  Titer: 7.32 Log10CFU/mL
[5]; 10 mM ethyl 2-mercaptoacetate
  first order rate constant of concentration decrease: 0.022 min⁻¹
[5]; Time 6 min
  Peak Areas (LCMS): 161.9
[5]; Time 14.5 min
  Peak Areas (LCMS): 128.8
[5]; Time 23.1 min
  Peak Areas (LCMS): 123.1
[5]; Time 31.6 min
  Peak Areas (LCMS): 96.3
[5]; Time 40.2 min
  Peak Areas (LCMS): 85
[5]; Time 48.7 min
  Peak Areas (LCMS): 76.9
[5]; Time 57.3 min
  Peak Areas (LCMS): 52.9
[5]; Time 65.8 min
  Peak Areas (LCMS): 42.7
[5]; Time 74.3 min
  Peak Areas (LCMS): 33.1
[5]; Time 82.9 min
  Peak Areas (LCMS): 26
[5]; Time 91.4 min
  Peak Areas (LCMS): 23.2
[5]; Time 100.0 min
  Peak Areas (LCMS): 17.4
[5]; Time 108.5 min
  Peak Areas (LCMS): 14
[5]; Time 117.1 min
  Peak Areas (LCMS): 11.5
[5]; Time 125.6 min
  Peak Areas (LCMS): 7.6
[6]; after 1 min and 40 sec (100 sec)
  ratio of the peak areas of compounds X, XXVI and XXVII: 21
[6]; after 10 min
  ratio of the peak areas of compounds X, XXVI and XXVII: 3
[6]; after 20 min
  ratio of the peak areas of compounds X, XXVI and XXVII: 0.5
[6]; in presence of 10 mM of thiophenol
  half-life of compound X: below 1 min
[2]; incubation 1 h
  BVDV titer: 3.88 Log10TCID50/mL
[2]; incubation 3 h
  BVDV titer: 2.94 Log10TCID50/mL
[2]; incubation 6 h
  BVDV titer: 0.84 Log10TCID50/mL
[4]; glycerol solution, addition of 0.1% of sodium hydroxide
  long term storage stability: significantly stabilized
[7]
  half-life of compound X: 7.5 h
